≈ marks a conversion by molar mass, not a printed value.
Assays:
Type in all cases: functional, cell-based
[1] = test system: A549; assay: Cytotoxicity against human A549 cells assessed as reduction in cell viability after 68 hrs by MTT assay; settings: A549, 68 h
[2] = test system: K562; assay: Cytotoxicity against human K562 cells assessed as reduction in cell viability after 68 hrs by MTT assay; settings: K562, 68 h
[3] = test system: HeLa; assay: Cytotoxicity against human HeLa cells assessed as reduction in cell viability after 68 hrs by MTT assay
[4] = test system: MCF7; assay: Cytotoxicity against human MCF7 cells assessed as reduction in cell viability after 68 hrs by MTT assay; settings: MCF7, 68 h
[5] = test system: A549; assay: Cytotoxicity against human A549 cells assessed as reduction in cell viability after 24 hrs by MTT assay; settings: A549, 24 h
[6] = test system: MDA-MB-231; assay: Cytotoxicity against human MDA-MB-231 cells assessed as reduction in cell viability after 24 hrs by MTT assay
[7] = test system: MCF7; assay: Cytotoxicity against human MCF7 cells assessed as reduction in cell viability after 48 hrs by MTT assay; settings: MCF7, 48 h
[8] = test system: A549; assay: Anticancer activity against human A549 cells by MTT assay
[9] = test system: 769-P; assay: Anticancer activity against human 769-P cells by MTT assay
[10] = test system: HepG2; assay: Anticancer activity against human HepG2 cells by MTT assay
[11] = test system: MDA-MB-231; assay: Anticancer activity against human MDA-MB-231 cells by MTT assay
[12] = test system: K562; assay: Anticancer activity against human K562 cells by MTT assay
[13] = test system: HeLa; assay: Anticancer activity against human HeLa cells by MTT assay

## COc1ccccc1NC(=O)Nc1ccc(Cc2c(C)c3cc(C(C)(C)C)c(O)cc3oc2=O)cn1
[1]
  IC50: 1.66 to 19.4 µM
[2]
  IC50: 1.66 to 19.4 µM
[3]
  IC50: 1.66 to 19.4 µM
[4]
  IC50: 1.66 to 19.4 µM

## O=c1oc2ccccc2cc1-c1cc(-c2ccc(Br)cc2)nc(Cc2ccc(F)cc2)n1
[5]
  IC50: 2.15 to 28.6 µM
[6]; Homo sapiens, MDA-MB-231, 24 h
  IC50: 2.15 to 28.6 µM

## Cc1cc(-c2cc3cc(Br)ccc3oc2=O)n(-c2nc(-c3ccccc3)cs2)n1
[7]
  IC50: 4.03 to 31.5 µM

## CCc1ccccc1NC(=O)c1ccc(-n2cc(COc3cc(=O)oc4ccccc34)nn2)cc1
[6]; mda-mb-231
  IC50: 0.03 to 91.6 µM

## O=c1oc2ccccc2cc1-c1cc(-c2ccc(Cl)cc2)nc(Cc2ccc(F)cc2)n1
[5]
  IC50: 2.51 µM
[6]; Homo sapiens, MDA-MB-231, 24 h
  IC50: 2.51 µM

## CC(=O)O[C@H]1C(=O)[C@@]2(C)[C@H]([C@H](OC(=O)c3ccccc3)[C@]3(O)C[C@H](OC(=O)[C@H](O)[C@@H](NC(=O)c4ccccc4)c4ccccc4)C(C)=C1C3(C)C)[C@]1(OC(C)=O)CO[C@@H]1C[C@@H]2O [PACLITAXEL]
[8]
  IC50: 0.35 µM
[1]
  IC50: 0.0033 to 0.014 µM
[2]
  IC50: 0.0033 to 0.014 µM
[3]
  IC50: 0.0033 to 0.014 µM
[4]
  IC50: 0.0033 to 0.014 µM

## Cc1cc(-c2cc3cc(Br)ccc3oc2=O)n(-c2nc(-c3ccc(Br)cc3)cs2)n1
[7]
  IC50: 4.03 to 31.5 µM

## CCOc1cc(Br)cc2c1OCC([N+](=O)[O-])=C2
[1]
  IC50: 0.95 to 6.43 µM
[2]
  IC50: 0.95 to 6.43 µM
[3]
  IC50: 0.95 to 6.43 µM
[4]
  IC50: 0.95 to 6.43 µM

## O=c1ccc2ccc(OCCCCCCCCCCCCn3cc(COc4ccc5ccc(=O)oc5c4)nn3)cc2o1
[9]
  IC50: 0.383 to 13.6 µM
[10]
  IC50: 0.383 to 13.6 µM
[11]
  IC50: 0.383 to 13.6 µM

## Cc1ccc(-c2cc(-c3cc4ccccc4oc3=O)nc(Cc3ccc(F)cc3)n2)cc1
[5]
  IC50: 2.15 to 28.6 µM
[6]; Homo sapiens, MDA-MB-231, 24 h
  IC50: 2.15 to 28.6 µM

## Cc1cc(-c2cc3cc(Br)ccc3oc2=O)n(-c2nc(-c3ccc(Cl)cc3)cs2)n1
[7]
  IC50: 4.03 to 31.5 µM

## O=c1oc2ccccc2cc1-c1cc(-c2ccccc2Br)nc(Cc2ccc(F)cc2)n1
[5]
  IC50: 2.15 to 28.6 µM
[6]; Homo sapiens, MDA-MB-231, 24 h
  IC50: 2.15 to 28.6 µM

## O=c1oc2ccccc2cc1-c1cc(-c2cccc(Cl)c2)nc(Cc2ccc(F)cc2)n1
[5]
  IC50: 2.15 to 28.6 µM
[6]; Homo sapiens, MDA-MB-231, 24 h
  IC50: 2.15 to 28.6 µM

## Cc1ccc(-n2nc(C)n(-n3c(-c4cc5ccccc5oc4=O)cs/c3=N\c3ccccc3)c2=O)cc1
[8]
  IC50: 0.16 to 1.12 µg/mL
[12]
  IC50: 0.16 to 1.12 µg/mL (≈ 0.315 to 2.21 µM)
[11]
  IC50: 0.16 to 1.12 µg/mL
[13]
  IC50: 0.16 to 1.12 µg/mL (≈ 0.315 to 2.21 µM)

## Cc1c(Cl)cccc1NC(=O)c1ccc(-n2cc(COc3cc(=O)oc4ccccc34)nn2)cc1
[6]; mda-mb-231
  IC50: 0.03 to 91.6 µM

## Cc1cc(=O)oc2cc(OCc3cn(CCCOc4ccc5ccc(=O)oc5c4)nn3)ccc12
[9]
  IC50: 0.383 to 13.6 µM
[10]
  IC50: 0.383 to 13.6 µM
[11]
  IC50: 0.383 to 13.6 µM

## COc1ccc(-c2cc(-c3cc4ccccc4oc3=O)nc(Cc3ccc(F)cc3)n2)cc1
[5]
  IC50: 2.23 µM
[6]; Homo sapiens, MDA-MB-231, 24 h
  IC50: 2.23 µM

## COc1ccc(NC(=O)c2ccc(-n3cc(COc4cc(=O)oc5ccccc45)nn3)cc2)cc1
[6]; mda-mb-231
  IC50: 0.03 to 91.6 µM

## O=c1ccc2ccc(OCCCCCCCCCn3cc(COc4ccc5ccc(=O)oc5c4)nn3)cc2o1
[9]
  IC50: 0.383 to 13.6 µM
[10]
  IC50: 0.383 to 13.6 µM
[11]
  IC50: 0.383 to 13.6 µM

## Cc1cc(=O)oc2cc(OCc3cn(CCCCCCCCCCOc4ccc5ccc(=O)oc5c4)nn3)ccc12
[9]
  IC50: 0.383 to 13.6 µM
[10]
  IC50: 0.383 to 13.6 µM
[11]
  IC50: 0.383 to 13.6 µM

## O=c1oc2ccccc2cc1-c1cc(-c2ccccc2Cl)nc(Cc2ccc(F)cc2)n1
[5]
  IC50: 2.15 to 28.6 µM
[6]; Homo sapiens, MDA-MB-231, 24 h
  IC50: 2.15 to 28.6 µM

## Cc1cccc(C)c1NC(=O)c1ccc(-n2cc(COc3cc(=O)oc4ccccc34)nn2)cc1
[6]; mda-mb-231
  IC50: 0.03 to 91.6 µM

## Cc1cc(=O)oc2cc(OCc3cn(CCCCCCCCCCCCOc4ccc5ccc(=O)oc5c4)nn3)ccc12
[9]
  IC50: 0.383 to 13.6 µM
[10]
  IC50: 0.383 to 13.6 µM
[11]
  IC50: 0.383 to 13.6 µM

## O=c1ccc2ccc(OCCCCn3cc(COc4ccc5ccc(=O)oc5c4)nn3)cc2o1
[9]
  IC50: 0.383 to 13.6 µM
[10]
  IC50: 0.383 to 13.6 µM
[11]
  IC50: 0.383 to 13.6 µM

## Cc1cc(=O)oc2cc(OCc3cn(CCCCOc4ccc5ccc(=O)oc5c4)nn3)ccc12
[9]
  IC50: 0.383 to 13.6 µM
[10]
  IC50: 0.383 to 13.6 µM
[11]
  IC50: 0.383 to 13.6 µM

## O=c1ccc2ccc(OCCCCCCCCCCn3cc(COc4ccc5ccc(=O)oc5c4)nn3)cc2o1
[9]
  IC50: 0.383 to 13.6 µM
[10]
  IC50: 0.383 to 13.6 µM
[11]
  IC50: 0.383 to 13.6 µM

## COc1ccc(/N=c2\scc(-c3cc4ccccc4oc3=O)n2-n2c(C)nn(-c3ccccc3)c2=O)cc1
[8]
  IC50: 0.16 to 1.12 µg/mL
[12]
  IC50: 0.16 to 1.12 µg/mL (≈ 0.306 to 2.14 µM)
[11]
  IC50: 0.16 to 1.12 µg/mL
[13]
  IC50: 0.16 to 1.12 µg/mL (≈ 0.306 to 2.14 µM)

## COc1ccc(OC)c(NC(=O)Nc2ccc(Cc3c(C)c4cc(C(C)(C)C)c(O)cc4oc3=O)cn2)c1
[1]
  IC50: 1.66 to 19.4 µM
[2]
  IC50: 1.66 to 19.4 µM
[3]
  IC50: 1.66 to 19.4 µM
[4]
  IC50: 1.66 to 19.4 µM

## Cc1ccc2c(C3C4=C(CCCC4=O)OC3c3cc(=O)oc4ccc(C)cc34)cc(=O)oc2c1 (configuration not stated)
[8]
  IC50: 0.42 to 0.43 µM

## Cc1ccc(-n2nc(C)n(-n3c(-c4cc5ccccc5oc4=O)cs/c3=N\c3ccc(Cl)cc3)c2=O)cc1
[8]
  IC50: 0.16 to 1.12 µg/mL
[12]
  IC50: 0.16 to 1.12 µg/mL (≈ 0.295 to 2.07 µM)
[11]
  IC50: 0.16 to 1.12 µg/mL
[13]
  IC50: 0.16 to 1.12 µg/mL (≈ 0.295 to 2.07 µM)

## COc1ccc(-n2nc(C)n(-n3c(-c4cc5ccccc5oc4=O)cs/c3=N\c3ccccc3)c2=O)cc1
[8]
  IC50: 0.16 to 1.12 µg/mL
[12]
  IC50: 0.16 to 1.12 µg/mL (≈ 0.306 to 2.14 µM)
[11]
  IC50: 0.16 to 1.12 µg/mL
[13]
  IC50: 0.16 to 1.12 µg/mL (≈ 0.306 to 2.14 µM)

## Cc1cccc(-c2cc(-c3cc4ccccc4oc3=O)nc(Cc3ccc(F)cc3)n2)c1
[5]
  IC50: 2.15 to 28.6 µM
[6]; Homo sapiens, MDA-MB-231, 24 h
  IC50: 2.15 to 28.6 µM

## Cc1cc(-c2cc3ccccc3oc2=O)n(-c2nc(-c3ccccc3)cs2)n1
[7]
  IC50: 4.03 to 31.5 µM

Reference: ChEMBL document CHEMBL4373717, “Coumarin-containing hybrids and their anticancer activities” (Eur J Med Chem, 2019)
